Results from patent publication US10894777B2, “TG2 inhibitor piperazine compounds and uses thereof” (UNIVERSITY OF OTTAWA, priority 2016, dated 2021).
Where two headings read alike, the source gives them in different places.

How the values were obtained:
TG2 = target: T1, TG2 (Homo sapiens, UniProt P21980); assay: Kinetic inactivation of purified recombinant human TG2, continuous spectrophotometric activity assay (Examples 3, 10); assay type: biochemical; set-up: made in house
T1 sequence (P21980 1-687): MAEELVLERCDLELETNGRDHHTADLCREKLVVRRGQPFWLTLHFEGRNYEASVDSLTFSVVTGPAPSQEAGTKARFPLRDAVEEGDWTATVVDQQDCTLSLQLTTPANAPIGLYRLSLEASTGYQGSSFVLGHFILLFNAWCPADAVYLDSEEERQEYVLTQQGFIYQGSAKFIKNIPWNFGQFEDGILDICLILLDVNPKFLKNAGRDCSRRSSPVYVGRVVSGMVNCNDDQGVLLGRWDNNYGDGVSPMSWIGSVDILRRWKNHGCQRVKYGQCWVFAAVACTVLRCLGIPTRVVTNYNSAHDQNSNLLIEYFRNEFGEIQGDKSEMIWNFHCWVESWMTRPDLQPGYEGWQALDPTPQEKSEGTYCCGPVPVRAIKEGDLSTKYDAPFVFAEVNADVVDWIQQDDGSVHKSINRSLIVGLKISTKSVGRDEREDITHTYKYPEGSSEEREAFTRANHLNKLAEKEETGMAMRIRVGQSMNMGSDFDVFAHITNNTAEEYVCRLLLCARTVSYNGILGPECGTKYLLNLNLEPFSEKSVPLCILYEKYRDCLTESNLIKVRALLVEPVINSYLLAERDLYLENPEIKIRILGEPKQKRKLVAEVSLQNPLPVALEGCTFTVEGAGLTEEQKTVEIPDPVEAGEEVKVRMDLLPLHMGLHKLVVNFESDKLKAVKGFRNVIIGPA
Description: Kinetic studies were carried out in vitro, using purified recombinant human TG2 (Roy, I. et al., Protein Expr. Purif. 87: 41-46, 2013) and a direct, continuous spectrophotometric activity assay (Leblanc, A. et al., Biochemistry 40: 8335-8342, 2001).
Kinetics. Kinetic runs were performed at 25° C. in 100 mM MOPS buffer (pH 7.0) containing 3 mM CaCl2 and 50 μM EDTA. […] Stock solutions of the substrate and inhibitors were prepared in DMF such that the final concentration of this co-solvent was constant at 10% v/v. Reactions were initiated with the addition of enzyme with an activity of approximately 0.05 U/mL. Kinetic evaluation was carried out by the method of Stone and Hofsteenge (Stone, S. R. and Hofsteenge, J., Biochem. J. 230: 497-502, 1985). […] Observed first-order rate constants of inactivation were determined from non-linear regression, to a mono-exponential model. These rate constants were in turn fit to equation 1 by non-linear regression, providing the kinetic parameters
Kinetic parameters were determined as described above.

TG2 mRNA = TG2 mRNA expression by qRT-PCR in GBM cell lines; assay type: cell-based, human; conditions: 10 μM, 24 or 48 h
Description: Q-RTPCR. After RNA isolation, cDNA was synthesized using the verso cDNA kit (ThermoFisher) with oligo-dT primers following the manufacturer's instructions. Quantitative real time PCR was carried out using SYBR green mix (Agilent Technologies) along with primers against total human TG2 or GAPDH (for normalization) as previously described (Cao, L. et al., Oncogene 31(20):2521-34, 2012).

A431 cells = assay: Migration (scratch wound closure) assay, A431 cells; assay type: cell-based, human; conditions: 20 μM
Description: In (A), it is shown that A431-derived ECS cells have elevated TG2 and mesenchymal markers. A431 cells (40,000 cells/well) were grown in spheroid media in monolayer conditions or as non-attached spheroids (ECS cells) for 10 d. Cells were harvested and lysates prepared for immunoblot. In (B), A431 cells were electroporated with 3 μg of control- or TG2-siRNA and at 72 h extracts were prepared to assay TG2 and EMT marker level. In (C), A431-derived ECS cells were electroporated with 3 μg of the indicated siRNA and then grown as spheroids for 96 h. […] In (D), A431 cells (500,000 cells/well) were plated in monolayer culture in spheroid media in 100 mm dishes. […] Confluent monolayers were then scratched with a 10-μL pipette tip, rinsed, and width of the wound was monitored for 0-14 h.
In (A), A431 cells were grown as monolayers or in ultralow attachment plates (spheroids) in spheroid medium. […] Spheroid number was counted on days 1, 2 and 3. […] Spheroid number and trypan-blue viable cell number were determined at the indicated times following NC9 addition. […] A wound was created and ability of the cells to close the wound was monitored with time. […]
Migration assay. […] Images were collected, at 0-18 h after the scratch using the 10× objective, and the width of the opening was measured as a function of time as an index of cell migration potential.

Row | kinact (TG2; Table 4) | kinact/KI (TG2; read-out: kinact/KI (?M^−1min^−1), Table 1) | kinact/KI (TG2; read-out: kinact/Ki (μM^−1 min^−1), Table 4, for ^a no saturation observed, efficiency obtained from initial slope) | SMILES | TG2 mRNA levels (TG2 mRNA) | cell migration / scratch wound closure (A431 cells)
1 | 0.0116 s⁻¹ | 130000 M⁻¹ min⁻¹ | 165000 M⁻¹ min⁻¹ | C=CC(=O)NCCCC[C@H](NC(=O)OCc1ccccc1)C(=O)N1CCN(C(=O)c2cc3ccc(O)cc3oc2=O)CC1 [VA5, (S)-Benzyl(6-acrylamido-1-(4-(7-hydroxy-2-oxo-2H-chromene-3-carbonyl)piperazin-1-yl)-1-oxohexan-2-yl)carbamate] |  | 
2 |  |  |  | C=CC(=O)NCCCC[C@H](NC(=O)OCc1ccccc1)C(=O)NCCOCCOCCNS(=O)(=O)c1cccc2c(N(C)C)cccc12 [NC9] | no significant effects | reduced cell migration
